target: bovine cardiac myosin (Bos taurus, UniProt Q9BE39); experiment: Myosin activation assay (PK/LDH-coupled ATPase, bovine cardiac myofibrils); assay type: biochemical; details: AC20 = concentration at which total response is increased by twenty percent
In short: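 Skinned bovine cardiac myofibrils (1 mg/mL) in PIPES/MgCl2 buffer pH 6.8 at free Ca2+ giving ~50% (pCa ~6) or <5% (pCa 10) activation, with 50 μM ATP and 3.3% DMSO. ATPase rate from NADH absorbance at 340 nm (PK/LDH coupling) over 15 min at ambient temperature. AC20/AC50 from a four-parameter fit of DMSO-normalised rates.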

Chain of bovine cardiac myosin (Q9BE39 whole entry): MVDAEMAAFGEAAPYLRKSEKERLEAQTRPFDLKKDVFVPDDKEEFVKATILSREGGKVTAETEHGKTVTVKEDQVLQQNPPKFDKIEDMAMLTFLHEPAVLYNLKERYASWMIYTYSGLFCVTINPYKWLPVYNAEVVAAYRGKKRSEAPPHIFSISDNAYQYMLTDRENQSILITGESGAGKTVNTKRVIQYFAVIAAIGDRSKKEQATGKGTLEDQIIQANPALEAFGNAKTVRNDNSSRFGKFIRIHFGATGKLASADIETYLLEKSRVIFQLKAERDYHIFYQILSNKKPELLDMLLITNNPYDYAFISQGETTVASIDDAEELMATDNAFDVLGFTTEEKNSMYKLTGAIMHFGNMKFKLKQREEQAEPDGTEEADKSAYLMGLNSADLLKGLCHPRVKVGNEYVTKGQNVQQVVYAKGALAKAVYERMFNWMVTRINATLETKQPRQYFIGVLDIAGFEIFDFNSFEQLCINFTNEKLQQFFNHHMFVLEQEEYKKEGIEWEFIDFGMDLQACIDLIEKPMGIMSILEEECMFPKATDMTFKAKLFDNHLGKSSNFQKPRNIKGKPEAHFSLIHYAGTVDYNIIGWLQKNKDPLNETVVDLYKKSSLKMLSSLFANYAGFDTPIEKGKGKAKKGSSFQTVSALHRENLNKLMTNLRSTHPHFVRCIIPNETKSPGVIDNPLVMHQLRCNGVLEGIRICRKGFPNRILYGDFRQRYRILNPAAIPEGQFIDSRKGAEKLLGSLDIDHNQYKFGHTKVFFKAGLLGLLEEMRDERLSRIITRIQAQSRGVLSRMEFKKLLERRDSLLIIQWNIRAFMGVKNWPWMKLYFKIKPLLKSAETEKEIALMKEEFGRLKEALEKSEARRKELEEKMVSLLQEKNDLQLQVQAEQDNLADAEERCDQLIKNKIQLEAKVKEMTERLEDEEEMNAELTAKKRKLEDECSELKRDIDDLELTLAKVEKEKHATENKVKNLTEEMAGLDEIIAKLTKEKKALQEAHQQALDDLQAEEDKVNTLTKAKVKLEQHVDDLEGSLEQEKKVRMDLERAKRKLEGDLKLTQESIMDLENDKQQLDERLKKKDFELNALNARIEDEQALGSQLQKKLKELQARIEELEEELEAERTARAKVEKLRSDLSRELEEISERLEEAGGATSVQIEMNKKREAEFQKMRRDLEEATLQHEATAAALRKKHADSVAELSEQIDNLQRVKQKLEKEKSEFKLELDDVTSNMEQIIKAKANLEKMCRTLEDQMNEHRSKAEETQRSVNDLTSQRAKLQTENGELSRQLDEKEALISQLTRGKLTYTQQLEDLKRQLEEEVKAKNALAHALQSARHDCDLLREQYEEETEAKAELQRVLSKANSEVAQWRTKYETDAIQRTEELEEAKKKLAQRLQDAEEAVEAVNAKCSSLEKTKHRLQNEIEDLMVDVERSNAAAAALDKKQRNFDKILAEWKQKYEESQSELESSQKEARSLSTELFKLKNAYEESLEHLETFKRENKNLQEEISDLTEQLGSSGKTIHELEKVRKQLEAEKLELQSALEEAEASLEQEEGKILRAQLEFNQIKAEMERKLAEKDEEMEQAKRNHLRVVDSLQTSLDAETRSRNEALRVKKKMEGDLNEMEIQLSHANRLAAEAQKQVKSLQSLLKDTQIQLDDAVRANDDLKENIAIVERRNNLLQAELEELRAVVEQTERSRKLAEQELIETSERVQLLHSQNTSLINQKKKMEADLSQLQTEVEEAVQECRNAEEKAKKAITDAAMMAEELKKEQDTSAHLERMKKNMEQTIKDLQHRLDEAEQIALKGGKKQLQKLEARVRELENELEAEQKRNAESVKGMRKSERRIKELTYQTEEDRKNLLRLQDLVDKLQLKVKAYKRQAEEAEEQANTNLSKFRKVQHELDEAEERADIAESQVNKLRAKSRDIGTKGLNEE
Chain of bovine cardiac myosin (P85100 whole entry partner): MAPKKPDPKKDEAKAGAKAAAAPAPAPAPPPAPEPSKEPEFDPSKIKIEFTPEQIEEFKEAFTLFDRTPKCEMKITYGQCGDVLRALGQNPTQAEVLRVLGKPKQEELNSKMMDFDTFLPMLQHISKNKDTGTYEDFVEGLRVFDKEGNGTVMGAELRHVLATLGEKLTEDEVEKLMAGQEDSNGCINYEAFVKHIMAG
Chain of bovine cardiac myosin (Q3SZE5 whole entry partner): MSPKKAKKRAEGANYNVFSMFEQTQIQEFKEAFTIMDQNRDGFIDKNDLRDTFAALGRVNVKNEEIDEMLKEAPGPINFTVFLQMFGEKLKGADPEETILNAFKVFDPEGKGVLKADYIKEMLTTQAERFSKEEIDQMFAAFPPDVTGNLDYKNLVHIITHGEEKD

SMILES	Myosin Activation (AC20)
Cn1cc(S(=O)(=O)[C@@](C)(F)C2CCN(C(=O)Nc3ccnc(F)c3)CC2)c(C(F)F)n1 [Compound 297, (R)-4-(1-((3-(difluoromethyl)-1-methyl-1H-pyrazol-4-yl)sulfonyl)-1-fluoroethyl)-N-(2-fluoropyridin-4-yl)piperidine-1-carboxamide]	+++ (+++ represents myosin activation value AC20 < 2 μM)
CC(C)(C1CCN(C(=O)Nc2ccns2)CC1)S(=O)(=O)c1ccccc1C#N [Compound 201, 4-(2-((2-cyanophenyl)sulfonyl)propan-2-yl)-N-(isothiazol-5-yl)piperidine-1-carboxamide]	+ (+ represents myosin activation value AC20 > 5 μM)
CCn1nccc1S(=O)(=O)C(C)(C)C1CCN(C(=O)Nc2ccncc2)CC1 [Compound 184, 4-(2-((1-ethyl-1H-pyrazol-5-yl)sulfonyl)propan-2-yl)-N-(pyridin-4-yl)piperidine-1-carboxamide]	++ (++ represents myosin activation value AC20 from 2 μM-5 μM)
CC(F)(C1CCN(C(=O)Nc2ccc(F)nc2)CC1)S(=O)(=O)c1cccc(F)c1 (centres unmarked) [Compound 239, 4-(1-fluoro-1-((3-fluorophenyl)sulfonyl)ethyl)-N-(6-fluoropyridin-3-yl)piperidine-1-carboxamide]	++ (++ represents myosin activation value AC20 from 2 μM-5 μM)
Cc1ccc(S(=O)(=O)CC2CCN(C(=O)Nc3ccncc3)CC2)cc1 [Compound 38, N-(pyridin-4-yl)-4-(tosylmethyl)piperidine-1-carboxamide]	+ (+ represents myosin activation value AC20 > 5 μM)
CCC(F)(C1CCN(C(=O)Nc2ccnnc2)CC1)S(=O)(=O)c1cccc(F)c1 (centres unmarked) [Compound 77, 4-(1-fluoro-1-((3-fluorophenyl)sulfonyl)propyl)-N-(pyridazin-4-yl)piperidine-1-carboxamide]	++ (++ represents myosin activation value AC20 from 2 μM-5 μM)
Cn1cnc(S(=O)(=O)C(C)(F)C2CCN(C(=O)Nc3ccnnc3)CC2)c1 (centres unmarked) [Compound 272, 4-(1-fluoro-1-((1-methyl-1H-imidazol-4-yl)sulfonyl)ethyl)-N-(pyridazin-4-yl)piperidine-1-carboxamide]	+ (+ represents myosin activation value AC20 > 5 μM)
CC(F)(C1CCN(C(=O)Nc2ccnnc2)CC1)S(=O)(=O)c1ccccc1C#N (centres unmarked) [Compound 56, 4-(1-((2-cyanophenyl)sulfonyl)-1-fluoroethyl)-N-(pyridazin-4-yl)piperidine-1-carboxamide]	+++ (+++ represents myosin activation value AC20 < 2 μM)
CC(F)(C1CCN(C(=O)Nc2ccnnc2)CC1)S(=O)(=O)c1ccc(C(F)(F)F)cc1 (centres unmarked) [Compound 266, 4-(1-fluoro-1-((4-(trifluoromethyl)phenyl)sulfonyl)ethyl)-N-(pyridazin-4-yl)piperidine-1-carboxamide]	++ (++ represents myosin activation value AC20 from 2 μM-5 μM)
N#Cc1ccc(S(=O)(=O)C(F)(F)C2CCN(C(=O)Nc3ccnnc3)CC2)c(Cl)c1 [Compound 76, 4-(((2-chloro-4-cyanophenyl)sulfonyl)difluoromethyl)-N-(pyridazin-4-yl)piperidine-1-carboxamide]	++ (++ represents myosin activation value AC20 from 2 μM-5 μM)
C[C@](F)(C1CCN(C(=O)Nc2ccnc(C#N)c2)CC1)S(=O)(=O)c1cccc(F)c1 [Compound 293, (R)-N-(2-cyanopyridin-4-yl)-4-(1-fluoro-1-((3-fluorophenyl)sulfonyl)ethyl)piperidine-1-carboxamide]	+ (+ represents myosin activation value AC20 > 5 μM)
Cn1cc(S(=O)(=O)[C@@](C)(F)C2CCN(C(=O)Nc3ccc(F)nc3)CC2)c(C(F)F)n1 [Compound 259, (R)-4-(1-((3-(difluoromethyl)-1-methyl-1H-pyrazol-4-yl)sulfonyl)-1-fluoroethyl)-N-(6-fluoropyridin-3-yl)piperidine-1-carboxamide]	+++ (+++ represents myosin activation value AC20 < 2 μM)
COc1ccc(S(=O)(=O)[C@@](C)(F)C2CCN(C(=O)Nc3ccon3)CC2)cn1 [Compound 308, (R)-4-(1-fluoro-1-((6-methoxypyridin-3-yl)sulfonyl)ethyl)-N-(isoxazol-3-yl)piperidine-1-carboxamide]	++ (++ represents myosin activation value AC20 from 2 μM-5 μM)
Cn1nc(C(F)F)cc1S(=O)(=O)C(C)(C)C1CCN(C(=O)Nc2ccon2)CC1 [Compound 108, 4-(2-((3-(difluoromethyl)-1-methyl-1H-pyrazol-5-yl)sulfonyl)propan-2-yl)-N-(isoxazol-3-yl)piperidine-1-carboxamide]	++ (++ represents myosin activation value AC20 from 2 μM-5 μM)
CC(F)(C1CCN(C(=O)Nc2ccnnc2)CC1)S(=O)(=O)c1ccccc1Cl (centres unmarked) [Compound 263, 4-(1-((2-chlorophenyl)sulfonyl)-1-fluoroethyl)-N-(pyridazin-4-yl)piperidine-1-carboxamide]	+++ (+++ represents myosin activation value AC20 < 2 μM)
CCn1nccc1S(=O)(=O)C(C)(C)C1CCN(C(=O)Nc2ccnnc2)CC1 [Compound 185, 4-(2-((1-ethyl-1H-pyrazol-5-yl)sulfonyl)propan-2-yl)-N-(pyridazin-4-yl)piperidine-1-carboxamide]	+ (+ represents myosin activation value AC20 > 5 μM)
Cn1nccc1S(=O)(=O)C(F)(F)C1CCN(C(=O)Nc2ccnnc2)CC1 [Compound 94, 4-(difluoro((1-methyl-1H-pyrazol-5-yl)sulfonyl)methyl)-N-(pyridazin-4-yl)piperidine-1-carboxamide]	+ (+ represents myosin activation value AC20 > 5 μM)
Cc1cc(S(=O)(=O)C(F)(F)C2CCN(C(=O)Nc3ccnnc3)CC2)n(C(C)C)n1 [Compound 87, 4-(difluoro((1-isopropyl-3-methyl-1H-pyrazol-5-yl)sulfonyl)methyl)-N-(pyridazin-4-yl)piperidine-1-carboxamide]	+ (+ represents myosin activation value AC20 > 5 μM)
CC(C)(C1CCN(C(=O)Nc2ccon2)CC1)S(=O)(=O)c1cccc(C#N)c1 [Compound 112, 4-(2-((3-cyanophenyl)sulfonyl)propan-2-yl)-N-(isoxazol-3-yl)piperidine-1-carboxamide]	++ (++ represents myosin activation value AC20 from 2 μM-5 μM)
Cn1cc(S(=O)(=O)C2(C3CCN(C(=O)Nc4ccnnc4)CC3)CCC2)c(C(F)F)n1 [Compound 170, 4-(1-((3-(difluoromethyl)-1-methyl-1H-pyrazol-4-yl)sulfonyl)cyclobutyl)-N-(pyridazin-4-yl)piperidine-1-carboxamide]	+++ (+++ represents myosin activation value AC20 < 2 μM)
O=C(Nc1ccnnc1)N1CCC(C2(S(=O)(=O)c3ccc(OC(F)(F)F)cc3)CC2)CC1 [Compound 205, N-(pyridazin-4-yl)-4-(1-((4-(trifluoromethoxy)phenyl)sulfonyl)cyclopropyl)piperidine-1-carboxamide]	+++ (+++ represents myosin activation value AC20 < 2 μM)
Cn1ccc(NC(=O)N2CCC(C(C)(C)S(=O)(=O)c3cccc(F)c3)CC2)n1 [Compound 138, 4-(2-((3-fluorophenyl)sulfonyl)propan-2-yl)-N-(1-methyl-1H-pyrazol-3-yl)piperidine-1-carboxamide]	+ (+ represents myosin activation value AC20 > 5 μM)
Cc1ccc(NC(=O)N2CCC(C(C)(C)S(=O)(=O)c3cc(C(F)F)nn3C)CC2)cn1 [Compound 107, 4-(2-((3-(difluoromethyl)-1-methyl-1H-pyrazol-5-yl)sulfonyl)propan-2-yl)-N-(6-methylpyridin-3-yl)piperidine-1-carboxamide]	++ (++ represents myosin activation value AC20 from 2 μM-5 μM)
CC(C)(C1CCN(C(=O)Nc2ccnnc2)CC1)S(=O)(=O)c1ccn2nccc2c1 [Compound 191, 4-(2-(pyrazolo[1,5-a]pyridin-5-ylsulfonyl)propan-2-yl)-N-(pyridazin-4-yl)piperidine-1-carboxamide]	+++ (+++ represents myosin activation value AC20 < 2 μM)
Cn1cc(S(=O)(=O)C(C)(C)C2CCN(C(=O)Nc3cn[nH]c3)CC2)c(C(F)(F)F)n1 [Compound 110, 4-(2-((1-methyl-3-(trifluoromethyl)-1H-pyrazol-4-yl)sulfonyl)propan-2-yl)-N-(1H-pyrazol-4-yl)piperidine-1-carboxamide]	++ (++ represents myosin activation value AC20 from 2 μM-5 μM)
CC(C)(C1(F)CCN(C(=O)Nc2ccnnc2)CC1)S(=O)(=O)c1cccc(F)c1 [Compound 30, 4-Fluoro-4-(2-((3-fluorophenyl)sulfonyl)propan-2-yl)-N-(pyridazin-4-yl)piperidine-1-carboxamide]	++ (++ represents myosin activation value AC20 from 2 μM-5 μM)
CC(F)(C1CCN(C(=O)Nc2nnco2)CC1)S(=O)(=O)c1cccc(F)c1 (centres unmarked) [Compound 222, 4-(1-fluoro-1-((3-fluorophenyl)sulfonyl)ethyl)-N-(1,3,4-oxadiazol-2-yl)piperidine-1-carboxamide]	+ (+ represents myosin activation value AC20 > 5 μM)
O=C(Nc1ccnnc1)N1CCC(C(F)(F)S(=O)(=O)c2ccc(C3CC3)nc2)CC1 [Compound 60, 4-(((6-cyclopropylpyridin-3-yl)sulfonyl)difluoromethyl)-N-(pyridazin-4-yl)piperidine-1-carboxamide]	++ (++ represents myosin activation value AC20 from 2 μM-5 μM)
CC(C)(C1CCN(C(=O)Nc2ccncc2)CC1)S(=O)(=O)c1ccccc1C#N [Compound 209, 4-(2-((2-cyanophenyl)sulfonyl)propan-2-yl)-N-(pyridin-4-yl)piperidine-1-carboxamide]	++ (++ represents myosin activation value AC20 from 2 μM-5 μM)

Source: patent US11123337B2, “4-methylsulfonyl-substituted piperidine urea compounds” (MYOKARDIA, INC., priority 2015, dated 2021)
